{
  "source": "patent US20180344696A1",
  "about": "“SYNERGISTIC COMBINATION OF PYRROLIDONE CARBOXYLIC ACID AND/OR SALTS THEREOF AND HYALURONIC ACID AND/OR SALTS THEREOF, FOR USE IN THE TREATMENT AND/OR PREVENTION OF DRYNESS AND IRRITATION OF THE MUCOSAE, AND RELATED PHARMACEUTICAL FORMULATIONS” (LABORATORI BALDACCI S.P.A., priority 2015, published 2018)",
  "key": {"[1]": {"assay": "Hygroscopic test according to Farmacopea Ufficiale Italiana (FUI) XII", "type": "physicochemical", "details": "5.00 g dried sample, 25° C., 24 hours", "experimental": "The determination of hygroscopicity of the combination of PCA and hyaluronic acid was performed, a test related to the hydration capability of a compound or mixture of compounds, to evaluate the synergism of the combination of PCA and hyaluronic acid for use in the treatment and/or prevention of dryness and irritation of the mucosae. […] At the end of the procedure, the contained was closed with its lid and weighed again (m3)."}, "[2]": {"assay": "Permanence of PCA in mucosal tissue after topical application (general statements)", "type": "in vivo"}, "[3]": {"assay": "Determination of PCA permanence on the nasal mucosa (HPLC recovery after applying gel)", "type": "in vivo, human", "experimental": "The samples were taken at various time points after administration, in order to accurately collect all the material present on the mucosa. After restoring to a certain volume of water (20 ml), the suspension obtained was filtered, and then 20 μl were injected into a chromatograph for quantitative analysis. A Waters liquid chromatograph with the following parameters was used: • Column: μBondapack C18 • Mobile phase: 0.1 M phosphoric acid at pH 3 with sodium hydroxide. • Flow: 1.5 ml/min • Detector: Spectrophotometer at 210 nm"}},
  "data": [
    {"compound": "Hyaluronic acid [100% HA]", "values": [
      {"measurement": "Result (hygroscopicity class)", "setting": "[1]", "value": "hygroscopic"},
      {"measurement": "Water adsorption (%) (average of the triplicate)", "setting": "[1]", "value": 6.00, "unit": "%"},
      {"measurement": "Water adsorption (g) (average of the triplicate)", "setting": "[1]", "value": 0.30, "unit": "g"},
      {"measurement": "Final Weight", "setting": "[1]; desiccator with saturated ammonium chloride or ammonium sulfate solution", "value": "5.30 ± 0.05", "unit": "g"}
    ]},
    {"compound": "O=C1CCC(C(=O)O)N1", "note": "(centres unmarked) [PCA, Pyrrolidone carboxylic acid]", "values": [
      {"measurement": "Administered amount of PCA identified in mucosal tissues", "setting": "[2]; 4 hours after a topical application of the formulations of the invention", "value": "approximately 80%"},
      {"measurement": "Time PCA remains in the mucosae", "setting": "[2]; after topical application", "value": "> 4", "unit": "h"},
      {"measurement": "PCA percentage present in the nasal mucosa, % of recovery based on the standard", "setting": "[3]; T = 0 after administration, 100 mg gel of Example 2 (1% PCA, 0.05% hyaluronic acid) on nasal mucosa", "value": 95, "unit": "% n = 1"},
      {"measurement": "PCA percentage present in the nasal mucosa, % of recovery based on the standard", "setting": "[3]; T = 60 after administration, 100 mg gel of Example 2 on nasal mucosa", "value": 80, "unit": "% n = 2"},
      {"measurement": "PCA percentage present in the nasal mucosa, % of recovery based on the standard", "setting": "[3]; T = 120 after administration, 100 mg gel of Example 2 on nasal mucosa", "value": 78, "unit": "% n = 2"},
      {"measurement": "PCA percentage present in the nasal mucosa, % of recovery based on the standard", "setting": "[3]; T = 180 after administration, 100 mg gel of Example 2 on nasal mucosa", "value": 70, "unit": "% n = 3"},
      {"measurement": "Time PCA is present on the nasal mucosa after application", "setting": "[3]; gel formulation from Example 2 on the nasal mucosa", "value": "≥ 4", "unit": "h"}
    ]}
  ]
}
